Experimental data published in patent US7109200B2, “Carbamate derivatives, process for producing the same and use thereof” (Takeda Pharmaceutical Company Limited, priority 2000, dated 2006).

What was measured:
Human normal plasma = experiment: In vitro clotting time measurement: prothrombin time (PT); assay type: biochemical; conditions: PT 2-fold extending concentration (CT2), rabbit brain-derived tissue thromboplastin
Description: (2) In vitro Clotting Time Measurement
(2-1) Prothrombin Time (PT) Measurement:
A PT-test WAKO (WAKO PURE CHEMICAL) was employed together with an automatic coagulometer (STA compact DIAGNOSTICA STAGO). 97 μl of Human normal plasma (fresh human plasma, FFP, SEKISUI KAGAKU KOGYO) was combined with 3 μl of a test substance and pre-incubated at 37° C. for 4 minutes. 50 μl of the plasma described above was combined with 100 μl of rabbit brain-derived tissue thromboplastin solution and the time for the clotting was measured. The test substance was used after dissolving in dimethyl sulfoxide (DMSO). A concentration required for 2-fold prolongation of the clotting time was calculated based on the clotting time observed when DMSO was added instead of the test substance.

human FXa = human FXa (Homo sapiens, UniProt P00742); experiment: Human activated coagulation factor X (FXa) inhibiting activity; assay type: biochemical; conditions: substrate S-2765, 37° C., absorbance at 405 nm
Chain of human FXa (P00742 235-488 limits assumed): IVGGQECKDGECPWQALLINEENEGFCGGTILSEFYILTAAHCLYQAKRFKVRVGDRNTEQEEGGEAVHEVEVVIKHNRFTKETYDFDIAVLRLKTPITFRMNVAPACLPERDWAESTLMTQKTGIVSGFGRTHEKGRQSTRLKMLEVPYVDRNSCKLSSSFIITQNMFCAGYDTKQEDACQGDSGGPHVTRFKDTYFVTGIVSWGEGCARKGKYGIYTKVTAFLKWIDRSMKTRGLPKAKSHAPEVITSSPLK
Chain of human FXa (P00742 41-179 partner limits assumed): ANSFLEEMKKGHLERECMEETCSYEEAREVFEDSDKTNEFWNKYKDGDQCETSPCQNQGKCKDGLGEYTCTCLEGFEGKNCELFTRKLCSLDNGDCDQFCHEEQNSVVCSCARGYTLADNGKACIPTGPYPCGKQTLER
Description: (1) Human Activated Coagulation Factor X (FXa) Inhibiting Activity
Method: A cuvette was charged with 225 μl of 0.05 M tris buffer (pH 8.3) containing 0.145 M sodium chloride and 2 mM calcium chloride, 5 μl of a sample (test compound dissolved in dimethyl sulfoxide) and 10 μl of human FXa (0.3 unit/ml), which were reacted at 37° C. for 10 minutes and then combined with 10 μl of a substrate (3 mM, S-2765) and further reacted at 37° C. for 10 minutes. Then the reaction was terminated by adding 25 μl of 50% aqueous acetic acid, and the change in the absorbance at 405 nm was determined using a spectrophotometer to calculate the concentration at which the FXa effect was inhibited by 50% (IC50).

IC50 (human FXa): 4.6 nM
SMILES: CCOC(=O)NC1(CN2CCN(S(=O)(=O)c3ccc4cc(Cl)ccc4c3)CC2=O)CCN(c2ccncc2)CC1 [Example 1, 4-(6-Chloronaphthalene-2-sulfonyl)-1-[4-ethoxycarbonylamino-1-(4-pyridyl)-4-piperidylmethyl]-2-piperazinone]
PT CT2 (Human normal plasma): 0.27 µM
